Like-named read-outs stand apart in the source and are kept apart here.
How the values were obtained:
rat lungs = conditions: apparent first-order pulmonary absorption rate constant in rats in vivo, cited from earlier work
[1] = tested on: isolated perfused rat lungs; test: in vitro
Protocol: (§1) Eight-week old male Wistar rats were obtained from Harlan UK Ltd. (Oxon, Oxfordshire). They were fed with a SDS RM1(E) maintenance diet (Special Diets Services Ltd., Essex). They were maintained at 20–21°C and 45–60% humidity with a 12 h light/dark cycle. All procedures performed on these animals were in accordance with regulations and established guidelines and were reviewed and approved by an Institutional Animal Care and Use Committee or through an ethical review process.
(§2) Rats were sacrificed with a lethal injection of pentobarbital (130 mg/kg body weight). As soon as they were unconscious, rats were secured in a supine position on a board inclined at approximately 45°. A midline incision was made from the neck to the abdomen using a scalpel blade and the rat was exsanguinated by severing the main abdominal vessels. The trachea was exposed and carefully pierced through one wall with a 21 G needle. A 3 cm long cannula made of a polyethylene tubing (PolyE 240, Harvard Apparatus Ltd., Edenbridge, UK) mounted on a blunt 21 G needle was introduced into the trachea. This was securely tied with two suture threads (Silk black braid USP size 4.0, Harvard apparatus Ltd) and a 25 mm Dieffenbach’s bulldog artery clip (Scientific Laboratory Supplies Ltd., Nottingham, UK). The diaphragm was cut open, 0.5 mL of air was administered to the lungs to partly re-inflate them and the rib cage was laterally incised with scissors taking care not to damage the lung tissue.
(§3) After the thymus was removed, the heart was twisted slightly to expose the pulmonary artery and then stretched down using a Halstead’s artery clamp (Scientific Laboratory Supplies). An incision was made and the pulmonary artery was cannulated using a cannula similar to the tracheal one. This was secured with a micro aneurysm clip (Harvard apparatus Ltd). Lungs were perfused using a single pass constant flow rate of 8 mL/min. […] The pericardium was dissected free to allow free efflux of the perfusate and lungs were inflated manually with 1.5 mL air using a 10 mL syringe connected to the intratracheal cannula. As soon as the tissue blanched, the lungs were removed carefully from the chest cavity while maintaining the perfusion and a semi micro Rexaloy clamp (Fisher Scientific, Loughborough, UK) was used to suspend the lungs vertically above a funnel and beaker.
(§4) After isolation, the lungs were allowed to stabilize for 1–2 min. The syringe attached to the intratracheal cannula was then disconnected and 100 μL of the test solutions were instilled into the airways using a Hamilton microsyringe. Lungs were re-inflated with 1.5 mL of air and sampling was performed by collecting the effluent solution dripping from the left atrium at different time intervals for 90 min. Lung viability was assessed by visual inspection for any sign of oedema as well as by the profile of mannitol airway to perfusate transfer.
(§5) The cumulative percentage of drug transferred from the airways to the perfusate in 90 min was calculated as the fraction of the administered dose recovered in the perfusate. […] The apparent first-order absorption rate constant (KaIPL) was calculated as follows: KaIPL=ln2/t1/2abs
(§6) Absorption data were collected using 4 or 5 IPL preparations.

[2] = Absorptive (A to B) permeability in normal human bronchial epithelial (NHBE) cell layers; assay type: in vitro ADME; conditions: human, apical to basolateral, 10 μM, pH 7.4, 2 h, mean ± SD (n = 3, n = 18 for mannitol)
Protocol: (§7) NHBE were cultured in a cell culture flask using the BEGM bullet kit provided by the supplier until reaching 70–80% confluence. […] After 24 h, cells were cultured at an air interface. Cell layers were used for transport studies after 14 d in culture.

[3] = Absorptive (A to B) permeability in Calu-3 cell layers; conditions: human
in vitro [4] = conditions: male, Wistar, rat, pH 7.4
Protocol: as §1, §2, §3, §4, §5, §6

in vitro [5] = conditions: human, pH 7.4
[6] = Table I panel of test compounds; source not stated; cited from earlier work
NHBE cell layers = test: Absorptive (A to B) permeability in normal human bronchial epithelial (NHBE) cell layers; assay type: in vitro ADME
Protocol: as §7

[7] = Absorptive (A to B) permeability in 16HBE14o- cell layers; conditions: human, pH 7.4
16HBE14o- cell layers = conditions: pH 7.4
Calu-3 cell layers = test: Absorptive (A to B) permeability in Calu-3 cell layers; conditions: Calu-3, apical to basolateral, 10 μM, pH 7.4, 2 h; mean ± SEM (n = 6, n = 36 for mannitol)
[8] = apparent first-order absorption rate constant = ln2/t1/2 abs, intratracheal instillation 100 μL, mean ± SD
[9] = male, Wistar, rat, 90 min, pH 7.4
[10] = pH 7.4, Papp, Calu-3, apical to basolateral, 10 μM, pH 7.4, 2 h, mean ± SEM (n = 6, n = 36 for mannitol)

| Molecule | Ka in vivo (rat lungs; ref [22]) | % transferred to the perfusate in 90 min [1, 9] [%] | Papp at 2 h, 10 μM [2] [×10⁻⁶ cm/s] | Papp at 2 h, 10 μM [3, 10] [×10⁻⁶ cm/s] | KaIPL ([1]; male, Wistar, rat, pH 7.4) [min⁻¹] | half-life (in vitro [4]) [min] | Papp at 2 h, 10 μM (in vitro [5]) [×10⁻⁶ cm/s] | also measured |
| --- | --- | --- | --- | --- | --- | --- | --- | --- |
| CN(C)CCCN1c2ccccc2CCc2ccccc21 [Imipramine] | 0.53 ^(1) min^−1 | 58 ± 9 | – | – | – | – | – | KaIPL [1, 8]: 0.071 ± 0.021 min⁻¹ |
| COCCc1ccc(OCC(O)CNC(C)C)cc1 (centres unmarked) [Metoprolol] | – | 65 ± 4 | 11.3 ± 0.7 | 10.3 | 0.260 ± 0.050 | 3 ± 1 | 24.5 ± 2.5 | – |
| CC(C)(C)NCC(O)c1cc(O)cc(O)c1 (centres unmarked) [Terbutaline] | 0.06 ^(1) min^−1 | 52 ± 12 | 13.8 ± 0.8 | 7.3 ± 0.4 | 0.037 ± 0.006 | 19 ± 3 | 19.3 ± 2 | Log P [6]: 0.1 |
| OC[C@@H](O)[C@@H](O)[C@H](O)[C@H](O)CO [Mannitol] | – | 51 ± 4 | 1.6 ± 0.5 | 0.5 ± 0.1 | 0.029 ± 0.005 | 25 ± 5 | – | Papp (NHBE cell layers): 1.6 ± 0.5 x 10^−6, cm s^−1; Papp at 2 h, 10 μM [7]: 3.7 ± 0.5 ×10⁻⁶ cm/s; Papp at 2 h, 10 μM ([3]; pH 7.4, Papp, Calu-3, as stated in text): 0.48 ± 0.06 ×10⁻⁶ cm/s; Ka in vivo (rat lungs; ref [24]): 0.011 ^(3) min^−1 |
| CC(C)NCC(O)COc1cccc2ccccc12 (centres unmarked) [Propranolol] | – | 47 ± 9 | 16.8 ± 3 | 7 ± 0.4 | 0.098 ± 0.016 | – | 17.3 ± 0.8 | half-life (in vitro [4]; 100 μL): 7 ± 1 min |
| COc1ccc(CC(C)NCC(O)c2ccc(O)c(NC=O)c2)cc1 (centres unmarked) [Formoterol] | 0.19 ^(1) min^−1 | – | – | – | – | – | – | Log P [6]: 1.1; Papp at 2 h, 10 μM ([3]; pH 7.4): 6.4 ± 0.3 ×10⁻⁶ cm/s; KaIPL [1, 8]: 0.023 ± 0.002 min⁻¹; % transferred to the perfusate in 90 min ([1]; cumulative fraction of administered dose recovered in perfusate at 90 min, mean ± SD): 46 ± 7%; half-life (in vitro [4]; 100 μL): 30 ± 2 min |
| Dextran 10 K | – | – | – | – | – | – | – | Papp (16HBE14o- cell layers): 1 ± 0.1 ×10⁻⁶ cm/s; Papp (NHBE cell layers; apical to basolateral, 10 μM, pH 7.4, 2 h, mean ± SD (n = 3, n = 18 for mannitol)): 0.7 ± 0.1 10^−6 cm/s; Papp (Calu-3 cell layers): 0.2 ± 0.0 10^−6 cm/s; Ka in vivo (rat lungs; ref [23]): 0.00007 ^(2) min^−1; KaIPL [1]: 0.017 ± 0.002 min⁻¹; t1/2 abs ([1]; rat): 41 ± 6 min |

Reference: paper PMC5736767, “A Comparison of Drug Transport in Pulmonary Absorption Models: Isolated Perfused rat Lungs, Respiratory Epithelial Cell Lines and Primary Cell Culture” (Pharmaceutical Research, 2017)
